We go through four compounds from patent US8722373B2, “Contaminant control in Zymomonas fermentation using virginiamycin” (E I du Pont de Nemours and Company, priority 2012, dated 2014).

Assay [1] has as its system Zymomonas mobilis strain ZM4. The following applies: concentrations that are safe to use with yeast; Agrawan and Basappa 1996; cited from earlier work.
For the next assay, the system named is Z. mobilis strain ZW705. Description: Tolerance of Z. mobilis to virginiamycin: growth in clarified MD07#3 hydrolysate. The settings on record: 2.5 ppm and 5 ppm virginiamycin; clarified cellulosic biomass hydrolysate medium, conditions of Example 1. The assay is classed as cell-based, Zymomonas mobilis. The procedure: Z. mobilis strain ZW705 (described in General Methods) inoculum was prepared by reviving 2 mL of OD-10 frozen stock in MRM3G6 medium (10 g/L BBL yeast extract, 2 g/L KH2PO4, 1 g/L MgSO4*7H2O, 60 g/L glucose, pH 5.5) at 33° C. for ˜8 hr. This culture was used to inoculate tubes containing clarified MD07#3 hydrolysate (see General Methods) supplemented with 2 g/L yeast extract and various virginiamycin preparations at a 20% (final volume) inoculation rate, producing an initial OD of ˜0.5. Stocks of the virginiamycin-containing agents Lactrol®, Lactoside V™ or Lactoside 247™ were prepared at 1000 ppm in ethanol. These agents were added to the media at 2.5 ppm, 5 ppm, 10 ppm, or 20 ppm. […] The tubes were maintained at 33° C. with shaking for 32 hours, with growth monitored by measuring OD600.

Assay [2] relates to Lactobacillus plantarum strain ATCC 8014. The assay is described as follows: Contamination control in Z. mobilis seed medium (lactic acid formation). The assay is classed as cell-based. The settings on record: fermentation broth with media lacking cellulosic biomass hydrolysate. The procedure: (§1) Fermentation samples were taken at timed intervals and analyzed for EtOH, residual sugars, and other metabolic products such as acetic acid, lactic acid, and glycerol using either a Waters HPLC system (Alliance system, Waters Corp., Milford, Mass.) or an Agilent 1100 Series LC; conditions=0.6 mL/min of 0.01 N H2SO4, injection volume=5 μL, autosampler temperature=10° C., column temperature=55° C., run time=25 min, detection by refractive index (maintained at 40° C.). The HPLC column was purchased from BioRad (Aminex HPX-87H, BioRad Inc., Hercules, Calif.). Analytes were quantified by refractive index detection and compared to known standards.
Z. mobilis strain ZW705 (described in General Methods) inoculum was prepared by reviving 2 mL of OD-10 frozen stock in MRM3G6 medium (10 g/L BBL yeast extract, 2 g/L KH2PO4, 1 g/L MgSO4*7H2O, 60 g/L glucose, pH 5.5) at 33° C. for ˜8 hr, at which point the OD was ˜2. Lactobacillus plantarum strain ATCC 8014 inoculum was prepared by inoculating MRS medium with an individual colony and allowing growth at 33° C. for 8 hr, at which point the OD was ˜0.4.
Seed medium (10 g/L Amberex695 yeast extract, 2 g/L KH2PO4, 5 g/L MgSO4*7H2O, 10 mM sorbitol, 150 g/L glucose, pH 5.5) was prepared and sterilized by autoclaving (121° C., 30 min). […]

For another assay, the system named is L. plantarum. Description: Contaminated Z. mobilis hydrolysate fermentation with Lactrol in the medium (lactic acid). The class given is cell-based, Lactobacillus plantarum. The settings on record: fermentation broth with media containing cellulosic biomass hydrolysate. The procedure:
as §1
To determine the Lactrol® dose required to prevent lactic acid formation during hydrolysate fermentation, a portion of intentionally-contaminated seed culture F1067 at EFT=19.3 hr (from Example 1) was used as a seed culture to inoculate cob hydrolysate medium (FRF13; see General Methods) (adjusted to pH 5.8, +10 mM sorbitol) at 10 vol % (final volume) containing either 0 ppm (sample F1069) or 2 ppm (sample F1071) of Lactrol®, which was then fermented at 33° C. (reduced to 30° C. at EFT=21 hr) and pH 5.8 (adjusted with 4 N NaOH). […]

For `CC1(C)S[C@@H]2[C@H](NC(=O)Cc3ccccc3)C(=O)N2[C@H]1C(=O)O` [penicillin G], the “effect on growth of / safety for Zymomonas” value (from here on “effect on growth of / safety”) in assay [1] is “safe for use with Zymomonas”. As to `[H]/N=C(/N)N[C@H]1[C@H](O)[C@@H](O)[C@H](O[C@@H]2O[C@@H](C)[C@](O)(C=O)[C@H]2O[C@@H]2O[C@@H](CO)[C@H](O)[C@@H](O)[C@@H]2NC)[C@@H](N/C(N)=N\[H])[C@@H]1O` [streptomycin], the “effect on growth of / safety” value in assay [1] was “inhibitory to growth”. Consider polymixin, for which the “effect on growth of / safety” value in assay [1] is “inhibitory to growth”. Consider virginiamycin, for which the “growth of Zymomonas cells (OD600) compared with absence of virginiamycin” value with Z. mobilis strain ZW705 was “improved growth”. The “concentration of virginiamycin that controls contaminating bacteria without affecting glucose utilization and ethanol production of Zymomonas cells” value in assay [2] is “about 2 ppm”. Moreover, the “concentration of virginiamycin that controls contaminating bacteria while maintaining typical ethanol production” value with L. plantarum is “at least 10 ppm”.
